Experimental data published in US20230190680A1, “METHODS AND COMPOSITIONS FOR TREATING AN RNA VIRUS INDUCED DISEASE” (Golden Biotechnology Corporation, priority 2020, published 2023).
Like-named read-outs stand apart in the source and are kept apart here.

Experiments:
CD3 = test: Local renal inflammation marker CD3 (FIG. 8); type: in vivo
IL18 = type: cell-based; conditions: 20 µM, DMSO 1.36-fold
HCV RNA = HCV RNA activity (FIG. 2B); type: cell-based
IL6 = type: cell-based; conditions: 10 µM; DMSO 47.81-fold; FIG. 12B
HepG2.2.15 cells = test: MTT assay (cytotoxicity); type: cell-based, human
Experimental: (§1) Cell Culture. HepG2.2.15 cell line was cultured in MEM medium, supplemented with 10% fetal bovine serum, penicillin (100 IU/ml; Gibco, USA), and streptomycin (100 ug/ml; Gibco, USA) in 5% CO2 incubator at 37° C. This is a cell line derived from human hepatoblastoma cell line HepG2 and characterized by having stable HBV expression. Qs5 is HBV-producing rat hepatoma cell lines.
MTT assay. 1.25 ×10^5 cells/well were seeded onto 24-well plate. Cells were incubated with varying concentrations of G4 and 3TC (1, 5, 25, 50, 100 and 200 uM) for 72 hours. 1 mg/ml 3-(4, 5-dimethylthiazol-2-yl)-2, 5- diphenyltetrazolium- bromide (MTT) was added to each well and incubated for 2 hours at 37° C. to allow formation of the colored crystals. Medium was replaced with DMSO and plates were incubated for 15 minutes at room temperature with shaking to dissolve the crystals. The absorbance was measured by the microplate reader. The optical density was measured at 490 nm.

COL4A1 = type: cell-based; conditions: 20 µM; DMSO 2.37-fold; FIG. 13B
TGFB1 = type: cell-based; conditions: 20 µM, DMSO 2.59-fold
Nrf-2 = test: Renal inflammation, NF-kB activation model (FIG. 7): nuclear Nrf-2 expression; type: in vivo
HBeAg = test: ELISA of HBeAg in HepG2.2.15 supernatants; type: cell-based, HBV; conditions: 72 hours, FIG. 1A
Experimental: as §1
(§2) Lamivudine (3TC) and Adefovir dipivoxil (Adv) are marketed for HBV treatment as positive controls. Antroquinonol (G4) and Lamivudine (3TC) dissolved in dimethylsulfoxide (DMSO) only for stock solutions and diluted in culture medium. The final concentration of DMSO in cells is less 0.1%. Drugs treated with 2×10^4 cells in 96-well plate for 72 hours.
(§3) The levels of HBsAg and HBeAg in HepG2.2.15 supernatants were measured using their commercial enzyme-linked immunosorbent assay (ELISA) kits following the manufacturer’s instructions.
(§4) To examine the effect of Antroquinonol on HBV protein expression, including surface antigen (HBsAg) and e antigen (HBeAg), ELISA assay was used to quantify HBV replication. The study results have shown that Compound 1 (i.e., Antroquinonol) reduces HBeAg (see FIG. 1A) and HBsAg (see FIG. 1B) expression levels. Compound 1 in comparison with Lamivudine, has shown reduction in the expression levels of the two major HBV biomarkers, HBeAg and HBsAg by 50% and 40% respectively.

MCP-1 = test: Local renal inflammation marker MCP-1 (FIG. 8); type: in vivo
SARS-CoV-2 = type: cell-based; conditions: Vero E6 cells, MOI = 0.1, 24 h, FIG. 10
CXCL10 = type: cell-based; conditions: DMSO 9.04 fold
HBsAg = test: ELISA of HBsAg in HepG2.2.15 supernatants; type: cell-based, HBV; conditions: 72 hours, FIG. 1B
Experimental: as §1, §2, §3, §4

IL-6 = test: Local renal inflammation marker IL-6 (FIG. 8); type: in vivo
NF-kB = test: Renal inflammation, NF-kB activation model (FIG. 7): NF-kB expression; type: in vivo

COC1=C(OC)C(O)C(C/C=C(\C)CC/C=C(\C)CCC=C(C)C)C(C)C1=O (stereo not drawn) [Compound 1, 4-hydroxy-2,3-dimethoxy-6-methyl-5-(3,7,11-trimethyldodeca-2,6,10-trienyl)cyclohex-2-enone]
suppression of CD3 expression (CD3): ~66%
change in IL18 expression (IL18): 0.89 fold
reduction in HCV RNA activity (HCV RNA): 95%
change in IL6 expression (IL6): 11.88 fold
cytotoxicity by MTT assay (HepG2.2.15 cells; over 25 uM): cytotoxicity effects
cytotoxicity by MTT assay (HepG2.2.15 cells; up to exposure to 5 uM): No apparent cytotoxicity
change in COL4A1 expression (COL4A1): 0.65 fold
change in TGFB1 expression (TGFB1): 0.99 fold
enhancement in nuclear Nrf-2 expression (Nrf-2): 2 times
reduction in the expression level of HBeAg (HBeAg): 50%
suppression of MCP-1 expression (MCP-1): around 50%
reduction of SARS-CoV-2 concentration (SARS-CoV-2; 10 µM): 91.20%
reduction of SARS-CoV-2 concentration (SARS-CoV-2; 20 µM): 99.93%
change in CXCL10 expression (CXCL10; 10 µM): 3.40 fold
change in CXCL10 expression (CXCL10; 20 µM): 1.01 fold
reduction in the expression level of HBsAg (HBsAg): 40%
suppression of IL-6 expression (IL-6): ~57%
suppression in NF-kB expression (NF-kB): 36%
